Structures are written as SMILES.

The source of these data is patent publication US6130248A, “Tricarboxylic acid-containing oxyalkyl esters and uses thereof” (Bar-ILAn University, priority 1996, dated 2000).

The test system of assay [1] is 53 primary tumor cell lines. The experiment in a line: Inhibition of clonogenicity of primary tumor cells. The format is cell-based, human. The text has this:
The tested tumor cells were from 11 non-small cell lung carcinomas, 10 breast carcinomas, 10 gastric carcinomas, 10 ovarian carcinomas, and 10 CNS tumors.

Assay [2] deals with P3HR-1 EBV-positive lymphoma cells. The experiment in a line: [3H]-thymidine incorporation in EBV-positive lymphoma cells. It is filed as cell-based, human. The conditions noted are these: 72 hours. The method, then:
The effect of GOMB to AB was compared on EBV virus-associated tumors. EBV-positive cells from P3HR-1, a human lymphoma cell line, were incubated in growth medium with the specified concentration of GOMB, AB, ganciclovir (GC), or combination of these, for 72 hours, seeded in 96-well plates and pulsed with 1 μCi [^3 H]-thymidine/well during the last 16 hours of exposure to the compounds. Cells were harvested with a cell harvester, using glass microfiber filters. The incorporation of [^3 H]-thymidine was determined by retention of the acid insoluble fraction on filters and is expressed as CPM.
(Dividing cells build labelled thymidine or BrdU into new DNA.)

The test system of the next assay is HL-60 cells. The assay can be described thus: Induction of apoptosis (propidium iodide, flow cytometry). It is filed as cell-based, human. As to conditions: 3 days. The method, then:
(§1) Apoptosis was measured as described by Telford et al., 1991, Cell Physiol. 24:447-459, in HL-60 cells and in the human erthroblastic cell line, K-562. Cells were treated with COMB for 3 days, fixed, stained with propidium iodine and analyzed by flow cytometrly for cell cycle distribution. […] This region consisted of cells with fragmented DNA.

A further assay relates to K-562 cells. The description is as above. It is filed as cell-based, human. The conditions noted are these: 3 days. The method, then: as §1
The next assay deals with K562 cells (HbF). The assay can be described thus: Hb-containing K562 cells by benzidine staining. It is filed as cell-based, human. The conditions noted are these: 5 days. As to the method: (§2) Hb Measurement: HB was measured by benzidine staining of K562 cells after 5 days exposure to GOMB or AB according to the procedure of Fibach et al. (1989) [full cite]. Quantitative measurement of HbF in K562 culture or human erythroid cultures was determined by ion-exchange high pressure liquid chromatography (HPLC) as described by Fibach et al., Blood 81:1630-1635, 1993.
K562 cells: K562 is an erthroblast cell line that develops some properties of erythroid, megakaryocyte or monocyte cells, depending on the specific stimulus, when induced by different chemicals. K562 cells were grown in RPMI with 10% FCS, supplemented with 2 mM glutamine. Cells were incubated at 37° C. in a humidified, 5% CO2 incubator.

Assay [3] relates to erythroid cells from peripheral blood (HbF). The assay can be described thus: HbF in cultured erythroid cells. As to conditions: Homo sapiens; 0.2 mM, relative to untreated control cultures; read-out: increase of HbF in cultured erythroid cells. It is filed as cell-based. The method, then:
as §2
Erythroid cells: Erythroid cells were isolated from peripheral blood of healthy individuals by the method of Fibach (1993).

With `CCCC(=O)OCOC(=O)CCCC(=O)O` [GOMB, mono-(butyroyloxymethyl)glutarate], the IC50 (commonly the concentration at which inhibition is half-maximal) in assay [1] (Homo sapiens) came to 34 µM. Moreover, the IC90 (usually the point of the concentration-response curve where the effect stands at 90%) in assay [1] (Homo sapiens) is 78 µM. For the same molecule, in assay [1] (average), the “AB/GOMB IC50 Ratio” value is recorded as 13.9. Besides, the “AB/GOMB IC90 Ratio” value in assay [1] (average) is given as 27.3. The “potency relative to AB in inhibiting EBV-positive lymphoma cells” value in assay [2] was found to be 10 fold. Also, the “% apoptotic cells HL-60” value with HL-60 cells (5.0 μM) is recorded as 9.4%; in the assay on HL-60 cells (12.5 μM), 14.9%; in the assay with HL-60 cells (25.0 μM), 15.8%; with HL-60 cells (37.5 μM), 36.3%. Besides, the “% apoptotic cells K-562” value is 9% in the assay on K-562 cells (12.5 μM) and 18% in the assay on K-562 cells (25.0 μM). In addition, the figures for the “Percentage K562 Cells Containing HbF” value in the assay with K562 cells (HbF) (0.01 mM), in the assay with K562 cells (HbF) (0.05 mM) and with K562 cells (HbF) (0.10 mM) were 6.3 ± 1.15%, 12.3 ± 5.3% and 29%, respectively. The activation at 200 µM in assay [3] worked out at 49.5%.
